Measured values: patent US12077503B2, “Substituted cyclic amides and their use as herbicides” (FMC CORPORATION, priority 2015, dated 2024)

Key:
Type in all cases: in vivo
[1] = test system: giant foxtail (Setaria faberii); test: Test A preemergence; settings: Setaria faberi, pre-emergence, 240 h, preemergence, 0 to 100 scale where 0 is no effect and 100 is complete control, read-out: Foxtail, Giant plant response rating; for pest or weed control at 125 g/ha: 125 g ai/ha, approx. 10 d; for pest or weed control at 500 g/ha: 500 g ai/ha
Procedure, shortened: (§1)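 Seeded soil received test chemicals as a preemergence directed spray, and seedlings at one to two leaves, 2–10 cm tall, received them postemergence, in a non-phytotoxic, surfactant-containing solvent mixture. Pots were held in a greenhouse for approximately 10 d, then rated for injury from 0, no effect, to 100, complete control.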

[2] = test system: barnyardgrass (Echinochloa crus-galli); test: Test B flooded paddy test; settings: Echinochloa crus-galli, 250 g ai/ha, Flood; 0 to 100 scale where 0 is no effect and 100 is complete control; read-out: Barnyardgrass plant response rating
Procedure, shortened: (§2)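 2-leaf plants; pots flooded 3 cm over soil; cpd added to paddy water; depth held; greenhouse 13–15 d; visual rating vs controls, 0 = no effect, 100 = complete control.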

[3] = test system: ducksalad (Heteranthera limosa); test: Test B flooded paddy test; settings: Heteranthera limosa, 250 g ai/ha, Flood; 0 to 100 scale where 0 is no effect and 100 is complete control; read-out: Ducksalad plant response rating
Procedure, shortened: as §2

rice (Oryra sativa) = test: Test B flooded paddy test; settings: Oryza sativa, 250 g ai/ha, Flood; 0 to 100 scale where 0 is no effect and 100 is complete control; read-out: Rice plant response rating
Procedure, shortened: as §2

[4] = test system: sedge, umbrella (small-flower umbrella sedge, Cyperus difformis); test: Test B flooded paddy test; settings: Cyperus difformis, 250 g ai/ha, Flood; 0 to 100 scale where 0 is no effect and 100 is complete control; read-out: Sedge, Umbrella plant response rating
Procedure, shortened: as §2

[5] = test system: ragweed (common ragweed, Ambrosia elatior); test: Test A postemergence; settings: Ambrosia artemisiifolia, post-emergence, 240 h, postemergence, read-out: Ragweed plant response rating; for pest or weed control at 125 g/ha: 125 g ai/ha, visual injury on 0 to 100 scale (0 no effect, 100 complete control), approx. 10 d; for pest or weed control at 500 g/ha: 500 g ai/ha, 0 to 100 scale, 0 is no effect, 100 is complete control
Procedure, shortened: as §1

Kochia (Kochia scoparia) = test: Test A postemergence; settings: Bassia scoparia, post-emergence, 240 h, postemergence, read-out: Kochia plant response rating; for pest or weed control at 125 g/ha: 125 g ai/ha, visual injury on 0 to 100 scale (0 no effect, 100 complete control), approx. 10 d; for pest or weed control at 500 g/ha: 500 g ai/ha, 0 to 100 scale, 0 is no effect, 100 is complete control
Procedure, shortened: as §1

[6] = test system: blackgrass (Alopecurus myosuroides); test: Test A postemergence; settings: Alopecurus myosuroides, post-emergence, 240 h, postemergence, read-out: Blackgrass plant response rating; for pest or weed control at 125 g/ha: 125 g ai/ha, visual injury on 0 to 100 scale (0 no effect, 100 complete control), approx. 10 d; for pest or weed control at 500 g/ha: 500 g ai/ha, 0 to 100 scale, 0 is no effect, 100 is complete control
Procedure, shortened: as §1

[7] = test system: wheat (Triticum aestivum); test: Test A postemergence; settings: Triticum aestivum, post-emergence, 240 h, postemergence, read-out: Wheat plant response rating; for plant injury at 125 g/ha: 125 g ai/ha, visual injury on 0 to 100 scale (0 no effect, 100 complete control), approx. 10 d; for plant injury at 500 g/ha: 500 g ai/ha, 0 to 100 scale, 0 is no effect, 100 is complete control
Procedure, shortened: as §1

[8] = test system: barnyardgrass (Echinochloa crus-galli); test: Test A postemergence; settings: Echinochloa crus-galli, post-emergence, 240 h, postemergence, read-out: Barnyardgrass plant response rating; for pest or weed control at 125 g/ha: 125 g ai/ha, visual injury on 0 to 100 scale (0 no effect, 100 complete control), approx. 10 d; for pest or weed control at 500 g/ha: 500 g ai/ha, 0 to 100 scale, 0 is no effect, 100 is complete control
Procedure, shortened: as §1

[9] = test system: Galium (catchweed bedstraw, Galium aparine); test: Test A postemergence; settings: Galium, post-emergence, 240 h, postemergence, read-out: Galium plant response rating; for pest or weed control at 125 g/ha: 125 g ai/ha, visual injury on 0 to 100 scale (0 no effect, 100 complete control), approx. 10 d; for pest or weed control at 500 g/ha: 500 g ai/ha, 0 to 100 scale, 0 is no effect, 100 is complete control
Procedure, shortened: as §1

corn (Zea mays) = test: Test A postemergence; settings: Zea mays, post-emergence, 240 h, postemergence, read-out: Corn plant response rating; for plant injury at 125 g/ha: 125 g ai/ha, visual injury on 0 to 100 scale (0 no effect, 100 complete control), approx. 10 d; for plant injury at 500 g/ha: 500 g ai/ha, 0 to 100 scale, 0 is no effect, 100 is complete control
Procedure, shortened: as §1

[10] = test system: ryegrass, Italian (Italian ryegrass, Lolium multiflorum); test: Test A postemergence; settings: Lolium multiflorum, post-emergence, 240 h, postemergence, read-out: Ryegrass, Italian plant response rating; for pest or weed control at 125 g/ha: 125 g ai/ha, visual injury on 0 to 100 scale (0 no effect, 100 complete control), approx. 10 d; for pest or weed control at 500 g/ha: 500 g ai/ha, 0 to 100 scale, 0 is no effect, 100 is complete control
Procedure, shortened: as §1

[11] = test system: pigweed (Amaranthus retroflexus); test: Test A postemergence; settings: Amaranthus retroflexus, post-emergence, 240 h, postemergence, read-out: Pigweed plant response rating; for pest or weed control at 125 g/ha: 125 g ai/ha, visual injury on 0 to 100 scale (0 no effect, 100 complete control), approx. 10 d; for pest or weed control at 500 g/ha: 500 g ai/ha, 0 to 100 scale, 0 is no effect, 100 is complete control
Procedure, shortened: as §1

[12] = test system: giant foxtail (Setaria faberii); test: Test A postemergence; settings: Setaria faberi, post-emergence, 240 h, postemergence, read-out: Foxtail, Giant plant response rating; for pest or weed control at 125 g/ha: 125 g ai/ha, visual injury on 0 to 100 scale (0 no effect, 100 complete control), approx. 10 d; for pest or weed control at 500 g/ha: 500 g ai/ha, 0 to 100 scale, 0 is no effect, 100 is complete control
Procedure, shortened: as §1

SMILES	pest or weed control at 125 g/ha [1]	pest or weed control at 500 g/ha [1]	pest or weed control at 250 g/ha [2]	pest or weed control at 250 g/ha [3]	pest or weed control at 250 g/ha (rice (Oryra sativa))	pest or weed control at 250 g/ha [4]	pest or weed control at 125 g/ha [5]	pest or weed control at 500 g/ha [5]	pest or weed control at 125 g/ha (Kochia (Kochia scoparia))	pest or weed control at 500 g/ha (Kochia (Kochia scoparia))	pest or weed control at 125 g/ha [6]	pest or weed control at 500 g/ha [6]	plant injury at 125 g/ha [7]	plant injury at 500 g/ha [7]	pest or weed control at 125 g/ha [8]	pest or weed control at 500 g/ha [8]	pest or weed control at 125 g/ha [9]	pest or weed control at 500 g/ha [9]	plant injury at 125 g/ha (corn (Zea mays))	plant injury at 500 g/ha (corn (Zea mays))	also measured
CN1C[C@H](c2cscn2)[C@@H](C(=O)Nc2cccc(F)c2F)C1=O [Compound 1113]	0%	0%	0%	30%	20%	0%	0%	0%	0%	0%	0%	0%	0%	0%	0%	0%	0%	0%	0%	0%	pest or weed control at 125 g/ha [10]: 0%; pest or weed control at 500 g/ha [10]: 0%; pest or weed control at 125 g/ha [11]: 0%; pest or weed control at 500 g/ha [11]: 0%; pest or weed control at 125 g/ha [12]: 0%; pest or weed control at 500 g/ha [12]: 0%
CN1C[C@H](c2csc3ccccc23)[C@@H](C(=O)Nc2cccc(F)c2F)C1=O [Compound 1115]	90%	90%	45%	90%	30%	0%	0%	30%	20%	40%	30%	40%	20%	30%	80%	90%	0%	30%	40%	50%	pest or weed control at 125 g/ha [10]: 20%; pest or weed control at 500 g/ha [10]: 40%; pest or weed control at 125 g/ha [11]: 20%; pest or weed control at 500 g/ha [11]: 20%; pest or weed control at 125 g/ha [12]: 70%; pest or weed control at 500 g/ha [12]: 90%
O=C1NC[C@H](c2csc(C(F)F)c2)[C@H]1C(=O)Nc1ccccc1F [Compound 1118]	60%	90%	65%	100%	40%	0%	0%	20%	0%	30%	20%	60%	20%	20%	80%	90%	50%	60%	0%	20%	pest or weed control at 125 g/ha [10]: 20%; pest or weed control at 500 g/ha [10]: 50%; pest or weed control at 125 g/ha [11]: 0%; pest or weed control at 500 g/ha [11]: 20%; pest or weed control at 125 g/ha [12]: 0%; pest or weed control at 500 g/ha [12]: 50%
